In patent publication US20160311886A1, “Constructs Binding to Phosphatidylserine and Their Use in Disease Treatment and Imaging” (Board of Regents, The University of Texas System, priority 2005, published 2016):

Legend:
[1] = test system: drug-resistant breast tumors; experiment: 3G4 and cisplatin against drug-resistant breast tumors; type: in vivo, mouse; conditions: treated after day 20
Description: Mice were inoculated with drug-resistant breast tumors and treated after day 20.

ABAE cells = experiment: Induction of PS exposure, 125I-annexin V binding; type: cell-based, bovine
Method: (§1) All reagents were diluted in medium containing 10% serum and incubated with the cells at 37° C. for 24 h.
(§2) To study the effect of hypoxia, cells were seeded on 24 well plates and were incubated in a humidified normoxic atmosphere (21% O2, 5% CO2) for 48 h before being transferred to a humidified hypoxic atmosphere (1% O2, 5% CO2, 94% N2) in a sealed chamber (Billups Rothenberg Inc., Del Mar, Ca). Cells were incubated in a hypoxic chamber for 24 h at 37° C. and were then returned to a normoxic environment for 4 h at 37° C. The cells were compared to a parallel culture from an identical passage, seeded on the same day and maintained entirely under normoxic conditions. In some studies, IL-1α (10 ng/ml) and TNFα (20 ng/ml) were added to the medium before transfer to the hypoxic chamber.
(§3) After treatment with the reagents described above, treated and control cells were incubated with 7.1 pmoles of ^125I-labeled annexin V (200 μl/well) in the binding buffer. After 2 h incubation at room temperature, cells were washed extensively and dissolved in 0.5 M of NaOH. The entire volume of 0.5 ml was transferred to plastic tubes and counted in a gamma counter. Non-specific binding was determined in the presence of 5 mM EDTA and was subtracted from experimental values. The results were expressed as net pmoles of cell-bound annexin V, normalized per 1×10^6 cells.
(§4) Maximal binding of annexin V was determined on cells simultaneously treated with actinomycin D and TNFα (50 ng/ml of each component). As has been previously reported, these agents cause apoptosis and PS exposure in 90-100% of endothelial cells (Lucas et al., 1998). Basal binding of ^125I-annexin V to untreated cells was determined in the presence of medium with 10% serum. The amount of ^125I-annexin V that bound to the untreated cultures was subtracted from that in the treated cultures. Exposure of PS was calculated according to the following formula: cell-bound annexin V (pmoles) under experimental conditions divided by maximal annexin V binding (pmoles), multiplied by 100. Each study was performed in duplicate and was performed at least three times. Mean values were calculated. The SE of the mean values from three separate experiments was less than 5%.

bEnd.3 cells = experiment: Induction of PS exposure, 125I-annexin V binding; type: cell-based, mouse
Method: as §1, §2, §3, §4

[2] = Phospholipid specificity ELISA; type: binding
Method: The specificity of the antibodies was determined by ELISA using plates coated with the following phospholipids: PS, phosphatidylserine; PE, phosphatidylethanolamine; PI, phosphatidylinositol; PA, phosphatidic acid; PG, phosphatidylglycerol; PC, phosphatidylcholine; CL, cardiolipin; and SM, sphingomyelin.

[3] = Binding of ch3G4 and 2aG4 to phospholipid-coated ELISA plates; conditions: vs 3G4
[4] = Serum dependence of binding to PS
Method: The serum dependence or independence of the antibodies is also set forth in Table 2 (see also, Example XXX).
The 1B9, 2G7 and 7C5 antibodies behave essentially the same. These antibodies recognize only PS and require serum or serum proteins for binding to PS. The binding of 1B9, 2G7 and 7C5 to various phospholipids in the present example was assayed only in the presence of 10% bovine serum, whereas binding of the other antibodies was tested either in the absence or in the presence of serum.

WiDr (colon carcinoma) = experiment: WiDr colon carcinoma model; type: in vivo, mouse; conditions: 100 μg 3×/week from day 5; preliminary study
Method: Treatment was started on day 5, when the tumors were small (10 mice per group). 100 μg of each antibody was injected 3×/week and tumor growth monitored.

[5] = test system: ABAE cells with exposed PS; experiment: Live-cell binding assay on LPC-treated endothelial cells; type: cell-based, bovine
Method: Adult bovine aortic endothelial (ABAE) cells were maintained in DMEM supplemented with 10% FBS and 2 mM L-glutamine. ABAE cells were removed from subconfluent cultures by brief exposure to 0.25% trypsin/0.02% EDTA, and 8-well chamber slides were seeded with 2×10^4 cells/well. Following overnight culture, cells were washed gently with PBS and treated with 200 μM lysophosphatidylcholine (LPC) to induce PS exposure.
PS exposure was determined by immunofluorescence staining. Cells were washed thoroughly in PBS, fixed in 4% paraformaldehyde (w/v), and incubated with a biotin-conjugated anti-mouse secondary antibody. Next, cells were incubated with FITC-conjugated streptavidin (Jackson Immunoresearch) to detect antibody binding. Cells were then permeablized with 0.1% Triton-X100 in PBS and counterstained with Texas Red-conjugated phalloidin (Molecular Probes, Eugene, Oreg.), and 4′, 6-diamidino-2-phenylindole (DAPI; Molecular Probes). Images were captured using a Coolsnap digital camera (Photometrics, Tucson, Ariz.) mounted on a Nikon microscope and processed with MetaVue software (Universal Imaging Corporation, Downingtown, Pa.).
The area of antibody binding was determined using MetaVue image analysis software, which is able to quantify the number of illuminated pixels in an image. Images of FITC fluorescence were used to quantify antibody binding. Corresponding images of DAPI fluorescence were used to normalize the FITC images for the number of cells present in the field. A small FITC/DAPI ratio indicates a small antibody binding area, whereas a large FITC/DAPI ratio indicates a large binding area. The FITC/DAPI ratios were used to determine increases or decreases in antibody binding area relative to a basal amount of antibody binding under the selected conditions. Five images at 200× magnification were used for each analysis. Data are presented as average relative FITC/DAPI ratios with error bars representing the standard deviation.
Cells were then washed, fixed, and stained with fluorescent markers to visualize binding of antibody to the cell surface.

[6] = Hypoxia (1% O2) + TNFα 20 ng/ml
[7] = Hypoxia (1% O2) + IL-1α 10 ng/ml

## N.N.[Cl][Pt][Cl] [cisplatin, reference compound]
[1]
  anti-tumor response: tumor growth was slowed

## FGF-2: human fibroblast growth factor-2
ABAE cells; 20 ng/ml, 24 h
  125I-Annexin V (% of Max binding): 0 % of Max binding
bEnd.3 cells; 20 ng/ml, 24 h
  125I-Annexin V (% of Max binding): 0 % of Max binding

## GM-CSF: cytokine tested on endothelial cells
ABAE cells; ABAE and bEnd.3 cells
  binding of 125I-annexin V above the basal level for untreated cells: did not increase binding

## IL-6: interleukin-6
ABAE cells; 20 ng/ml, 24 h
  125I-Annexin V (% of Max binding): 0 % of Max binding
bEnd.3 cells; 20 ng/ml, 24 h
  125I-Annexin V (% of Max binding): 0 % of Max binding

## IL-8: interleukin-8
ABAE cells; 20 ng/ml, 24 h
  125I-Annexin V (% of Max binding): 0 % of Max binding
bEnd.3 cells; 20 ng/ml, 24 h
  125I-Annexin V (% of Max binding): 0 % of Max binding

## IL-10: interleukin-10
ABAE cells; 20 ng/ml, 24 h
  125I-Annexin V (% of Max binding): 0 % of Max binding
bEnd.3 cells; 20 ng/ml, 24 h
  125I-Annexin V (% of Max binding): 0 % of Max binding

## Scatter factor: Recombinant hepatocyte growth factor (HGF or scatter factor)
ABAE cells; 40 ng/ml, 24 h
  125I-Annexin V (% of Max binding): 0 % of Max binding
bEnd.3 cells; 40 ng/ml, 24 h
  125I-Annexin V (% of Max binding): 0 % of Max binding

## TGF β1: growth factor tested on endothelial cells
ABAE cells; 20 ng/ml, 24 h
  125I-Annexin V (% of Max binding): 0 % of Max binding
bEnd.3 cells; 20 ng/ml, 24 h
  125I-Annexin V (% of Max binding): 0 % of Max binding

## TNFα
ABAE cells; 20 ng/ml, 24 h
  125I-Annexin V (% of Max binding): 7.4 % of Max binding
ABAE cells; [6]
  125I-Annexin V (% of Max binding): 33.0 % of Max binding
bEnd.3 cells; 20 ng/ml, 24 h
  125I-Annexin V (% of Max binding): 13.7 % of Max binding
bEnd.3 cells; [6]
  125I-Annexin V (% of Max binding): 36.0 % of Max binding

## Thrombin
ABAE cells; 50 nM, 24 h
  125I-Annexin V (% of Max binding): 8.8 % of Max binding
bEnd.3 cells; 50 nM, 24 h
  125I-Annexin V (% of Max binding): 17.4 % of Max binding

## VEGF
ABAE cells; 20 ng/ml, 24 h
  125I-Annexin V (% of Max binding): 0 % of Max binding
bEnd.3 cells; 20 ng/ml, 24 h
  125I-Annexin V (% of Max binding): 0 % of Max binding

B1: 2aG4: Recombinant mouse IgG2a isotype of 3G4; SEQ ID NO:10 and 11 (antibody, listed as Mus musculus)
heavy: MGWTWIFILILSVTTGVHSEVQLQQSGPELEKPGASVKLSCKASGYSFTGYNMNWVKQSHGKSLEWIGHIDPYYGDTSYNQKFRGKATLTVDKSSSTAYMQLKSLTSEDSAVYYCVKGGYYGHWYFDVWGAGTTVTVSSAKTTAPSVYPLAPVCGDTTGSSVTLGCLVKGYFPEPVTLTWNSGSLSSGVHTFPAVLQSDLYTLSSSVTVTSSTWPSQSITCNVAHPASSTKVDKKEPRGPTIKPCPPCKCPAPNLLGGPSVFIFPPKIKDVLMISLSPIVTCVVVDVSEDDPDVQISWFVNNVEVHTAQTQTHREDYNSTLRVVSALPIQHQDWMSGKEFKCKVNNKDLPAPIERTISKPKGSVRAPQVYVLPPPEEEMTKKQVTLTCMVTDFMPEDIYVEWTNNGKTELNYKNTEPVLDSDGSYFMYSKLRVEKKNWVERNSYSCSVVHEGLHNHHTTKSFSRTPGK
light: MDMRAPAQILGFLLLLFPGTRCDIQMTQSPSSLSASLGERVSLTCRASQDIGSSLNWLQQGPDGTIKRLIYATSSLDSGVPKRFSGSRSGSDYSLTISSLESEDFVDYYCLQYVSSPPTFGAGTKLELKRADAAPTVSIFPPSSEQLTSGGASVVCFLNNFYPKDINVKWKIDGSERQNGVLNSWTDQDSKDSTYSMSSTLTLTKDEYERHNSYTCEATHKTSTSPIVKSFNRNEC
[2]
  Relative Strength of Reactivity on ELISA: PS = PA = PI = PG = CL >> PE
[3]
  affinity and specificity in PS-ELISA: essentially the same as for 3G4
[4]
  Serum cofactor?: Yes
WiDr (colon carcinoma)
  tumor growth: slowed tumor growth to essentially the same degree

B2: 3G4 Fab′: Monovalent fragment of 3G4 (antibody)
VH: EVQLQQSGPELEKPGASVKLSCKASGYSFTGYNMNWVKQSHGKSLEWIGHIDPYYGDTSYNQKFRGKATLTVDKSSSTAYMQLKSLTSEDSAVYYCVKGGYYGHWYFDVWGAGTTVTVSSATTTAPSVYPLVP
light: DIQMTQSPSSLSASLGERVSLTCRASQDIGSSLNWLQQGPDGTIKRLIYATSSLDSGVPKRFSGSRSGSDYSLTISSLESEDFVDYYCLQYVSSPPTFGAGTKLELKRADAAPTVSIFPPSSEQLTSGGASVVCFLNNFYPKDINVKWKIDGSERQNGVLNSWTDQDSKDSTYSMSSTLTLTKDEYERHNSYTCEATHKTSTSPIVKSFNRNEC
[5]; 20 nM ch3G4, 40 nM hβ2GPI
  inhibition of ch3G4/β2GPI binding: inhibited ch3G4/β2GPI binding to LPC-treated ABAE cells in a concentration-dependent manner
[5]; 20 nM, DMEM+10% FBS
  binding to LPC-treated ABAE cells: negligible
[5]; 2 μM, 40 nM hβ2GPI
  binding to ABAE cells: No binding

B3: IL-1β: Recombinant murine interleukin-1 beta (protein, UniProt P10749 118-269, looked up)
Interleukin-1 beta: VPIRQLHYRLRDEQQKSLVLSDPYELKALHLNGQNINQQVIFSMSFVQGEPSNDKIPVALGLKGKNLYLSCVMKDGTPTLQLESVDPKQYPKKKMEKRFVFNKIEVKSKVEFESAEFPNWYISTSQAEHKPVFLGNNSGQDIIDFTMESVSS
ABAE cells; 10 ng/ml, 24 h
  125I-Annexin V (% of Max binding): 5.8 % of Max binding
bEnd.3 cells; 10 ng/ml, 24 h
  125I-Annexin V (% of Max binding): 5.5 % of Max binding

B4: nicked hβ2GPI: hβ2GPI cleaved by plasmin at Lys317/Thr318; non-lipid binding form (protein)
chain: GRTCPKPDDLPFSTVVPLKTFYEPGEEITYSCKPGYVSRGGMRKFICPLTGLWPINTLKCTPRVCPFAGILENGAVRYTTFEYPNTISFSCNTGFYLNGADSAKCTEEGKWSPELPVCAPIICPPPSIPTFATLRVYKPSAGNNSLYRDTAVFECLPQHAMFGNDTITCTTHGNWTKLPECREVKCPFPSRPDNGFVNYPAKPTLYYKDKATFGCHDGYSLDGPEEIECTKLGNWSAMPSCKASCKLPVKKATVVYQGERVKIQEKFKNGMLHGDKVSFFCKNKEKKCSYTEDAQCIDGTIEVPKCFKEHSSLAFWKTDASDVKPC
[5]; 2 μg/ml, LPC
  mediation of ch3G4 binding to ABAE cells with exposed PS: not able to mediate binding

B5: IL-1α: Recombinant murine interleukin-1 alpha (protein, UniProt P01582 115-270, looked up)
Interleukin-1 alpha: SAPYTYQSDLRYKLMKLVRQKFVMNDSLNQTIYQDVDKHYLSTTWLNDLQQEVKFDMYAYSSGGDDSKYPVTLKISDSQLFVSAQGEDQPVLLKELPETPKLITGSETDLIFFWKSINSKNYFTSAAYPELFIATKEQSRVHLARGLPSMTDFQIS
ABAE cells; 10 ng/ml, 24 h
  125I-Annexin V (% of Max binding): 6.4 % of Max binding
ABAE cells; [7]
  125I-Annexin V (% of Max binding): 26.0 % of Max binding
bEnd.3 cells; 10 ng/ml, 24 h
  125I-Annexin V (% of Max binding): 7.5 % of Max binding
bEnd.3 cells; [7]
  125I-Annexin V (% of Max binding): 31.0 % of Max binding
